Data set [1] has as its system V79 Chinese hamster cells. In words: HPRT forward mutation assay. Format: cell-based. How it is done:
propidium iodide (PI) is standard to quantify DNA content using flow cytometry, bleed-through of the MLCT emission of […]
To remove these artefacts, a higher concentration of Ru1 (100 µM, 10 mins) was additionally applied post-incubation and fixation to treated and control samples, acting as a substitute DNA dye instead of PI. After staining, cells were centrifuged (1000 rpm, 5 mins) and re-suspended in PBS.
Samples were analysed using a Biosciences LSRII Flow Cytometer using the FL2 channel to collect (recognisable) cell-cycle […]
profiles. […] A minimum of
10,000 cells were counted for each sample and data were processed using FloJo software.
Microscopy and immunofluorescence. Cells were seeded on ibidi 35 mm µ-dishes (Thistle Scientific), allowed to adhere for 24 h and treated as stated in the main text. Cell media was removed, cells washed with PBS and fixed with formaldehyde (4%, 10 mins). Cells were permeablised with Triton (0.5% in PBS, 5 mins) and washed with PBS. […]
emission was collected from 500-530 nm to prevent spectral overlap with Ru1 emission. γH2AX foci were counted using […]
The absorbance at 540 nm was quantified by plate reader (reference wavelength 650 nm). The metabolic activity of the cell population was determined as a percentage of a negative (solvent) control. […]
Cell cultures were treated as stated, media containing detached/dead cells were removed and retained, and adherent collected by Trypsin and centrifugation. […] Trypan Blue negative and Trypan Blue positive cells were counted by haemocytometer. A minimum of 200 cells were counted for each sample.
HPRT (hypoxanthine-guanine phosphoribosyl transferase) forward mutation assay. […] The cultures were washed with PBS, cells were detached by trypsin (0.05%) and cell number was determined. […] After 7 days' incubation, the resulting colonies were stained with methylene blue and those containing 100 or more cells were counted. Cloning efficiency was determined and is usually expressed in percent relative to the […]

The next data set deals with FLO-1 cells. In words: Micronuclei formation, FLO-1. Format: cell-based, human. The conditions noted are these: FLO-1, 44 μM Ru1, 24 h incubation. The method, then: Microscopy and immunofluorescence. Cells were seeded on ibidi 35 mm µ-dishes (Thistle Scientific), allowed to adhere for 24 h and treated as stated in the main text. Cell media was removed, cells washed with PBS and fixed with formaldehyde (4%, 10 mins). Cells were permeablised with Triton (0.5% in PBS, 5 mins) and washed with PBS. Samples were blocked with BSA (3% in PBS-T) for 1 h before incubation with primary antibody (either anti-α-tubulin or anti-γ H2AX, 1/500 dilution) in BSA (3% in PBS-T) for 1 h. Samples were washed 3x in PBS-T and incubated with Alexa Fluor-conjugated secondary antibodies (3% in PBS-T, 1 h, 1/250 dilution). After further washing (3x5 min PBS-T) samples were co-stained with DAPI (5 ng/ml, 2 min), fresh PBS added and visualised by confocal microscopy. Samples were visualised using a Zeiss LSM 780 or LSM 710 inverted confocal microscope and EC Plan-Neofluar 40x/1.30 Oil objectives. […]
For the determination of mutation induction, from the untreated and each treated condition, 2x10^5 cells were plated in 10 x 100 mm dishes in selective media (regular media

A further data set has as its system OE33 cells. In words: Clonogenic survival assay with IR, OE33. The conditions noted are these: Ru1 2 μM or Cis 500 nM for 24 h before IR. Format: cell-based, human. How it is done:
Clonogenic survival assay. OE21, OE33 or FLO1 cells were treated with 2 µM Ru1 for 24 h before irradiation with 0-8 Gy using a 137Cs γ-irradiator (IBL637, CIS Bio Int.; dose rate = 0.809 Gy min−1). 1 h after irradiation, cells were detached using Trypsin and re-seeded in 6 well plates at a density of 300 – 20,000 cells/well in triplicate in an incrementally greater number of cells with increasing IR dose to ensure adequate colony formation. Cells were incubated for 7–14 days after re-seeding to allow colony formation before being fixed with 10% methanol, 10% acetic acid and stained with 0.4% methylene blue. OE33 cells required an additional formaldehyde fixation (4% in PBS, 5 mins) step before the addition of methylene blue solution or colony detachment occurred. Colonies containing 50 cells or greater were counted using a Gelcount instrument and accompanying software (Oxford Optronix). Plating efficiencies were determined for each treatment condition and normalised to an untreated control to provide the surviving fraction (S. F.). S.F. versus radiation dose curves were plotted in GraphPad Prism and fit using a second order polynomial function (R2 values > 0.99). Dose modifying factors (DMF) at a SF=0.1 were calculated using the equation: Dose modifying factor (DMF) = IR dose to give S.F. 0.1/IR dose plus compound to give S.F.0.1. […]

Regarding [Ru(phen)2(tpphz)]^2+ [Ru1], the “M.F. (mutation frequency)” value in data set [1] (2 μM of each complex for 24 h) was 36.7 ± 7.3 6-TG resistant mutations per 1 × 10^5 viable cells. The “Rel. M.F. (ratio of induced to spontaneous mutations)” value in data set [1] (2 μM of each complex for 24 h) is on record as 5.8. Also, the “mutation rate lower than for cisplatin” value in data set [1] (HPRT assay, V79, 2 μM, 24 h) was “two-fold”. Also, in the data set on FLO-1 cells, the “Cells with micronuclei, Percentage” value came to 3.3%. Moreover, the S.F. is 0.956 in the data set on OE33 cells (OE33, IR 0 Gy); 0.447 in the data set on OE33 cells (OE33, IR 2 Gy); 0.083 in the data set with OE33 cells (OE33, IR 4 Gy); 0.014 in the data set on OE33 cells (OE33, IR 6 Gy); 0.003 with OE33 cells (OE33, IR 8 Gy).
